Measurements: patent US20200032271A1, “COMBINATION THERAPY WITH LIPOSOMAL ANTISENSE OLIGONUCLEOTIDES” (Bio-Path Holdings, Inc., priority 2016, published 2020)
Several values for one entry are separate records, joined by “and”; a condition that tells them apart may be missing. Identical values can stand only once. [PEt] = P-ethoxy (ethyl phosphotriester) internucleoside linkage

How the values were obtained:
[1] = Phase I study: dose-limiting toxicity and maximum tolerated dose; assay type: in vivo, human
Method: A BP1001 phase I study was conducted in two parts: (A) BP1001 dose escalation and (B) BP1001 with concurrent low-dose cytarabine (LDAC) dose expansion. For dose escalation (Part A), a standard “3+3” design was used in which successive cohorts of 3 or more patients with hematologic malignancies were treated at escalating doses from 5 to 135 mg/m^2 of BP1001 until a maximum tolerated dose (MTD) was identified. For the dose expansion portion of the study (Part B), two successive subsets of patients with AML were treated with BP1001 at the MTD (or highest tested dose [HTD]) and one level below the MTD (or HTD) in combination with a fixed dose of LDAC to further characterize safety and biological effect, as well as identify the recommended phase 2 dose. Both parts of the study employed an open-label, sequential, dose-escalation design to assess safety, tolerability and toxicity, pharmacokinetics (PK), tumor response, and anti-leukemic activity. A total of 39 patients were treated in the study: AML (n=30), CML-BP (n=5), and MDS (n=4). Of 39 patients, 27 were evaluable; 12 failed completion of a full cycle due to disease progression and were replaced per protocol. Only one patient on 5 mg/m^2 experienced a dose-limiting toxicity (DLT), grade 3 mucositis and hand-foot syndrome, while on high-dose hydroxyurea for proliferative CML-BP. The study medication could not be ruled out as a contributing factor, so this event was reported as a DLT. Upon expansion to six patients, no other patient developed a DLT. No other drug related toxicity has been observed in any of the patients treated. […] The HTD for BP1001 is 90 mg/m^2.
The study was designed as a standard 3+3 dose escalation trial for the assessment of safety, pharmacokinetics and efficacy of BP1001 in adult patients diagnosed with refractory/relapsed Philadelphia chromosome positive CML or ALL, AML, or MDS. Cohorts of three patients were enrolled at each dose level. The initial dose of BP1001 was 5 mg/m^2 (Cohort 1). If one patient developed a grade 3 or higher toxicity, three more patients were accrued at that dose level. […]

[2] = tested on: Grb2; assay: Flow cytometry of Grb2 levels in circulating leukemia cells of patients; assay type: in vivo, human; conditions: for Grb2 decrease (%) (Day 15) / Grb2 decrease (%) (Day 22 or end-of-treatment): individual subjects
Text: Flow cytometry was used to determine the levels of Grb2 and pErk proteins in the circulating leukemia cells of patients who were on BP1001 single agent therapy, and were reported as median fluorescent intensity (MFI). MFI of Grb2 and pErk during treatment were compared to those at baseline.
Peripheral blood was collected from patients in cohorts 3, 4, 5, and 6, before being dosed on Cycle 1 days 1, 8, 15 and 22, and Cycle 2 day 1. White blood cells were isolated from peripheral blood using BD Vacutainer CPT cell preparation tubes with sodium heparin (BD Dickinson), fixed and stored in −80° C. freezer. Flow cytometry was utilized to determine Grb2 and phosphorylated Erk1,2 (pErk) levels in CD33-expressing cells using a validated method (Flow Contract Site Laboratory, Bothell, Wash., USA).
Flow cytometry was utilized to determine the levels of Grb2 and pErk proteins in the circulating leukemia cells of patients who were on BP1001 single agent therapy, and were reported as median fluorescent intensity (MFI). MFI of Grb2 and pErk during treatment were compared to those at baseline (Table 7).

[3] = tested on: peripheral blood and bone marrow blasts; assay: Anti-leukemia activity in patients (peripheral blood and bone marrow blasts, response); assay type: in vivo, human; conditions: for Bone marrow blasts (%) Nadir / Bone marrow blasts (%) Off-Rx / Peripheral blood blasts (%) Off-Rx / Peripheral blood blasts (%) Nadir: individual evaluable patients
Method: Peripheral blood assessments were done at baseline (within 14 days of study start), and on days 1, 8, 15, 22, at completion of cycle one, and as clinically indicated. Bone marrow assessments were done at baseline (within 14 days of study start), at completion of cycle one, cycle 2, and as clinically indicated. Baseline cytogenetics data were obtained before treatment. Molecular analysis was conducted to detect somatic mutations on the baseline bone marrow.
BP1001, as a single agent therapy, decreased >50% peripheral blood blasts in 9 of 21 patients, and decreased >50% bone marrow blasts in 3 of 21 patients (Table 8). […] Four patients completed 2 cycles of treatment and three patients completed 5 cycles of treatment (Table 8). These seven patients had diverse cytogenetics and molecular abnormalities such as JAK2 and NRAS mutations (Table 8). […]

[4] = Single-dose toxicity study in mice; conditions: mouse
Method: Fifteen female ICR mice (5/group) were assigned to a non-injected control group (Group IV) and two treatment groups (Groups V and VI) to receive 20 and 40 mg oligo/kg, respectively, intravenously via the tail vein as a single injection. Animals were observed daily and blood was collected for hematology and clinical chemistry evaluations at two and six weeks post injection. Animals were sacrificed following blood collection at six weeks post-injection and tissues collected for gross and microscopic evaluations of organ toxicity.

[5] = of 21 evaluable patients, single agent

## BP1001: liposome-incorporated P-ethoxy antisense oligodeoxynucleotide (5′-ATATTTGGCGATGGCTTC-3′, SEQ ID NO: 1) specific to grb2 mRNA, in neutral DOPC liposomes (DNA, all [PEt], methylation of C not given here; incorporated in neutral DOPC liposomes)
[1]; 5 mg/m^2, patient on high-dose hydroxyurea for CML-BP, no other DLT after expansion to six
  patients with dose-limiting toxicity (grade 3 mucositis and hand-foot syndrome): one
[1]; patients
  highest tested dose (HTD): 90 mg/m^2
[1]; patients, 5 to 90 mg/m^2 i.v. twice weekly
  maximum tolerated dose (MTD): not identified
[2]; cohort 3, 20 mg/m^2
  Grb2 decrease (%) (Day 15): 0% (2×) and 56%
  Grb2 decrease (%) (Day 22 or end-of-treatment): 28% and 47% and 57%
[2]; cohort 4, 40 mg/m^2
  Grb2 decrease (%) (Day 15): 63% and 47%
  Grb2 decrease (%) (Day 22 or end-of-treatment): 54% and 0% and 34%
[2]; cohort 5, 60 mg/m^2
  Grb2 decrease (%) (Day 15): 0% and 57% and 54%
  Grb2 decrease (%) (Day 22 or end-of-treatment): 30% and 65% and 43%
[2]; cohort 6, 90 mg/m^2
  Grb2 decrease (%) (Day 15): 0% and 85% and 63%
  Grb2 decrease (%) (Day 22 or end-of-treatment): 0% and 91% and 40%
[2]; last measured sample
  average decrease in Grb2 levels: 49%
[2]; last measured sample (end of treatment or cycle 1 day 22), MFI vs baseline
  samples with ≥25% decrease of Grb2 levels: 10 out of 12
[3]; 5 mg/m^2, no Ara-C
  Bone marrow blasts (%) Nadir: 10% and 4%
  Bone marrow blasts (%) Off-Rx: 10% and 6%
  Peripheral blood blasts (%) Off-Rx: 1% and 50% and 21% and 97% and 5% and 0%
[3]; 10 mg/m^2, no Ara-C
  Bone marrow blasts (%) Nadir: 76% and None and 38%
  Bone marrow blasts (%) Off-Rx: 76% and 80% and 38%
  Peripheral blood blasts (%) Nadir: 31% and 5% and 43%
  Peripheral blood blasts (%) Off-Rx: 72% and 63% and 74%
[3]; 20 mg/m^2, no Ara-C
  Bone marrow blasts (%) Nadir: 3%
  Peripheral blood blasts (%) Nadir: 0%
  Peripheral blood blasts (%) Off-Rx: 1% and 0%
[3]; 40 mg/m^2, no Ara-C
  Bone marrow blasts (%) Nadir: None (2×) and 54%
  Bone marrow blasts (%) Off-Rx: 36% and 80%
  Peripheral blood blasts (%) Nadir: 3% and None (2×)
  Peripheral blood blasts (%) Off-Rx: 19% and 80% and 97%
[3]; 60 mg/m^2, no Ara-C
  Bone marrow blasts (%) Nadir: 88% and None
  Bone marrow blasts (%) Off-Rx: 88% and 92%
  Peripheral blood blasts (%) Nadir: 93% and 7% and 17%
  Peripheral blood blasts (%) Off-Rx: 98% and 24% and 82%
[3]; 90 mg/m^2, no Ara-C
  Bone marrow blasts (%) Nadir: None and 22%
  Bone marrow blasts (%) Off-Rx: 17% and 22%
  Peripheral blood blasts (%) Nadir: 0% and None (2×)
  Peripheral blood blasts (%) Off-Rx: 0% and 42% and 92%
[3]; BP1001 5 mg/m^2, no Ara-C
  Peripheral blood blasts (%) Nadir: 0% (2×) and 7% and 5% and 82% and 2%
[3]; [5]
  patients with improvement of leukemia cutis: two
  patients with transient decline in blasts: six
[3]; of 21 evaluable patients, single agent (Part A)
  patients with ≥50% reduction in peripheral or bone marrow blasts: 10
[3]; one CML blast crisis patient with T315I, from 81%
  peripheral blasts after four BP1001 infusions: 5%
[3]; single agent therapy
  patients with >50% decrease of bone marrow blasts: 3 of 21
  patients with >50% decrease of peripheral blood blasts: 9 of 21
[4]; single i.v. 30 mg oligo/kg
  WBC counts at six weeks post-injection: Recovery
[4]; single i.v. 40 mg oligo/kg, not statistically different than control
  group average WBC count at six weeks: not fully recovered
[4]; single i.v. 15-40 mg oligo/kg, six weeks observation
  morbidity or mortality: No signs of morbidity or mortality
[4]; single i.v. 15-40 mg/kg
  drug-related lesions in examined organs: no drug-related lesions
[4]; single i.v. 30 and 40 mg oligo/kg
  WBC count at two weeks post-injection: Reduction
